Laboratory results: US12404244B2, “Pan-KIT kinase inhibitor having quinoline structure and application thereof” (Tarapeutics Science Inc., priority 2018, dated 2025)

Key:
TEL-KIT/T670I-BaF3 = assay: Proliferation of TEL-KIT/T670I-BaF3 cells (CCK-8); assay type: cell-based, mouse; conditions: Mus musculus; 72 hours, CCK-8; read-out: GI50 TEL-KIT/T670I-BaF3
Text: (§1) Compounds as provided herein were further evaluated for their inhibitory effects on proliferation of cancer cells by testing their effects on growth of cancer cells. In this example the following cells were used: primary mouse B cells BaF3 (purchased from ATCC), GIST-T1 cells of the human gastrointestinal stromal tumor cell line (expressing wild-type KIT gene) (purchased from Cosmo Bio Co., Ltd. (Japan)). The present lab further constructed and used the following: mouse Tel-Kit-BaF3 (stably expressing KIT wild-type kinase), mouse Tel-Kit/T670I-BaF3 (stably expressing KIT T670I mutant kinase), mouse Tel-Kit/V559A-BaF3 (stably expressing KIT V559A mutant kinase), mouse Tel-Kit/V559D-BaF3 (stably expressing KIT V559D mutant kinase), mouse Tel-Kit/V559G-BaF3 (stably expressing KIT V559G mutant kinase), mouse Tel-Kit/V560D-BaF3 (stably expressing KIT V560D mutant kinase), mouse Tel-Kit/L576P-BaF3 (stably expressing KIT L576P mutant kinase), mouse Tel-Kit/V654A-BaF3 (stably expressing KIT V654A mutant kinase), mouse Tel-Kit/V654A/V559D-BaF3 (stably expressing KIT V654A V559D mutant kinase), mouse Tel-Kit/T670E-BaF3 (stably expressing KIT T670E mutant kinase), mouse Tel-Kit/T670I/V559D-BaF3 (stably expressing KIT T670I V559D mutant kinase), mouse Tel-Kit/S709F-BaF3 (stably expressing KIT S709F mutant kinase), mouse Tel-Kit/D816E-BaF3 (stably expressing KIT D816E mutant kinase), mouse Tel-Kit/D816H-BaF3 (stably expressing KIT D816H mutant kinase), mouse Tel-Kit/D820E-BaF3 (stably expressing KIT D820E mutant kinase), mouse Tel-Kit/D820G-BaF3 (stably expressing KIT D820G mutant kinase), mouse Tel-Kit/D820Y-BaF3 (stably expressing KIT D820Y mutant kinase), mouse Tel-Kit/N822K-BaF3 (stably expressing KIT N822K mutant kinase), mouse Tel-Kit/Y823D-BaF3 (stably expressing KIT Y823D mutant kinase), mouse Tel-Kit/A829P-BaF3 (stably expressing KIT A829P mutant kinase), GIST-T1-T670I cells of the human gastrointestinal stromal tumor cell line (expressing KIT-T670I mutant gene). The above cell lines were constructed by: amplifying respectively the sequences of human KIT and various mutant kinase regions of KIT via PCR, inserting the fragments respectively into MSCV-Puro vectors having a N-terminal TEL fragment and/or a NPM fragment and/or a TPR fragment (purchased from Clontech), transfecting mouse BaF3 cells with the vectors by means of retrovirus to obtain stably transfected cells, removing the growth factor IL-3, and thereby eventually obtaining cell lines that depend on the transferred protein KIT or various mutants of KIT. The GIST-T1-T670I (expressing C-KIT-T670I mutant gene) cell line was constructed by our laboratory as follows: designing sgRNA that targeted a region around T670 of the KIT gene with CRISPR Design Tool (website: crispr.mit.edu, Zhang Feng Lab), cloning it into pSpCas9(BB)-2A-Puro vector; co-transfecting cells with the resultant vector and a single-stranded oligonucleotide having T670I site mutation that is near to T670, subjecting the resultant to antibiotics screening, followed by dilution, and monocellular culture in a 96-well plate; validating the site T670 of the cells by sequence detection via Sanger sequencing.

TEL-KIT/V559D-BaF3 = assay: Proliferation of TEL-KIT/V559D-BaF3 cells (CCK-8); assay type: cell-based; conditions: Mus musculus; 72 hours, CCK-8; read-out: GI50 TEL-KIT/V559D-BaF3
Text: as §1, with “The GIST-T1-T670I (expressing C-KIT-T670I mutant gene) cell line was constructed by our laboratory as follows: designing sgRNA that targeted a region around T670 of the KIT gene with CRISPR Design Tool (website: crispr.mit.edu, Zhang Feng Lab), cloning it into pSpCas9(BB)-2A-Puro vector; co-transfecting cells with the resultant vector and a single-stranded oligonucleotide having T670I site mutation that is near to T670, subjecting the resultant to antibiotics screening, followed by dilution, and monocellular culture in a 96-well plate; validating the site T670 of the cells by sequence detection via Sanger sequencing.” left out

TEL-KIT/V559G-BaF3 = assay: Proliferation of TEL-KIT/V559G-BaF3 cells (CCK-8); assay type: cell-based; conditions: Mus musculus; 72 hours, CCK-8; read-out: GI50 TEL-KIT/V559G-BaF3
Text: as §1, with “The GIST-T1-T670I (expressing C-KIT-T670I mutant gene) cell line was constructed by our laboratory as follows: designing sgRNA that targeted a region around T670 of the KIT gene with CRISPR Design Tool (website: crispr.mit.edu, Zhang Feng Lab), cloning it into pSpCas9(BB)-2A-Puro vector; co-transfecting cells with the resultant vector and a single-stranded oligonucleotide having T670I site mutation that is near to T670, subjecting the resultant to antibiotics screening, followed by dilution, and monocellular culture in a 96-well plate; validating the site T670 of the cells by sequence detection via Sanger sequencing.” left out

TEL-KIT/V560D-BaF3 = assay: Proliferation of TEL-KIT/V560D-BaF3 cells (CCK-8); assay type: cell-based; conditions: Mus musculus; 72 hours, CCK-8; read-out: GI50 TEL-KIT/V560D-BaF3
Text: as §1, with “The GIST-T1-T670I (expressing C-KIT-T670I mutant gene) cell line was constructed by our laboratory as follows: designing sgRNA that targeted a region around T670 of the KIT gene with CRISPR Design Tool (website: crispr.mit.edu, Zhang Feng Lab), cloning it into pSpCas9(BB)-2A-Puro vector; co-transfecting cells with the resultant vector and a single-stranded oligonucleotide having T670I site mutation that is near to T670, subjecting the resultant to antibiotics screening, followed by dilution, and monocellular culture in a 96-well plate; validating the site T670 of the cells by sequence detection via Sanger sequencing.” left out

TEL-KIT/L576P-BaF3 = assay: Proliferation of TEL-KIT/L576P-BaF3 cells (CCK-8); assay type: cell-based; conditions: Mus musculus; 72 hours, CCK-8; read-out: GI50 TEL-KIT/L576P-BaF3
Text: Compounds as provided herein were further evaluated for their inhibitory effects on proliferation of cancer cells by testing their effects on growth of cancer cells. In this example the following cells were used: primary mouse B cells BaF3 (purchased from ATCC), GIST-T1 cells of the human gastrointestinal stromal tumor cell line (expressing wild-type KIT gene) (purchased from Cosmo Bio Co., Ltd. (Japan)). The present lab further constructed and used the following: mouse Tel-Kit-BaF3 (stably expressing KIT wild-type kinase), mouse Tel-Kit/T670I-BaF3 (stably expressing KIT T670I mutant kinase), mouse Tel-Kit/V559A-BaF3 (stably expressing KIT V559A mutant kinase), mouse Tel-Kit/V559D-BaF3 (stably expressing KIT V559D mutant kinase), mouse Tel-Kit/V559G-BaF3 (stably expressing KIT V559G mutant kinase), mouse Tel-Kit/V560D-BaF3 (stably expressing KIT V560D mutant kinase), mouse Tel-Kit/L576P-BaF3 (stably expressing KIT L576P mutant kinase), mouse Tel-Kit/V654A-BaF3 (stably expressing KIT V654A mutant kinase), mouse Tel-Kit/V654A/V559D-BaF3 (stably expressing KIT V654A V559D mutant kinase), mouse Tel-Kit/T670E-BaF3 (stably expressing KIT T670E mutant kinase), mouse Tel-Kit/T670I/V559D-BaF3 (stably expressing KIT T670I V559D mutant kinase), mouse Tel-Kit/S709F-BaF3 (stably expressing KIT S709F mutant kinase), mouse Tel-Kit/D816E-BaF3 (stably expressing KIT D816E mutant kinase), mouse Tel-Kit/D816H-BaF3 (stably expressing KIT D816H mutant kinase), mouse Tel-Kit/D820E-BaF3 (stably expressing KIT D820E mutant kinase), mouse Tel-Kit/D820G-BaF3 (stably expressing KIT D820G mutant kinase), mouse Tel-Kit/D820Y-BaF3 (stably expressing KIT D820Y mutant kinase), mouse Tel-Kit/N822K-BaF3 (stably expressing KIT N822K mutant kinase), mouse Tel-Kit/Y823D-BaF3 (stably expressing KIT Y823D mutant kinase), mouse Tel-Kit/A829P-BaF3 (stably expressing KIT A829P mutant kinase), GIST-T1-T670I cells of the human gastrointestinal stromal tumor cell line (expressing KIT-T670I mutant gene). […]

TEL-KIT/V654A-BaF3 = assay: Proliferation of TEL-KIT/V654A-BaF3 cells (CCK-8); assay type: cell-based; conditions: Mus musculus; 72 hours, CCK-8; read-out: GI50 TEL-KIT/V654A-BaF3
Text: as §1, with “The GIST-T1-T670I (expressing C-KIT-T670I mutant gene) cell line was constructed by our laboratory as follows: designing sgRNA that targeted a region around T670 of the KIT gene with CRISPR Design Tool (website: crispr.mit.edu, Zhang Feng Lab), cloning it into pSpCas9(BB)-2A-Puro vector; co-transfecting cells with the resultant vector and a single-stranded oligonucleotide having T670I site mutation that is near to T670, subjecting the resultant to antibiotics screening, followed by dilution, and monocellular culture in a 96-well plate; validating the site T670 of the cells by sequence detection via Sanger sequencing.” left out

TEL-KIT/T670E-BaF3 = assay: Proliferation of TEL-KIT/T670E-BaF3 cells (CCK-8); assay type: cell-based; conditions: Mus musculus; 72 hours, CCK-8; read-out: GI50 TEL-KIT/T670E-BaF3
Text: as §1, with “The GIST-T1-T670I (expressing C-KIT-T670I mutant gene) cell line was constructed by our laboratory as follows: designing sgRNA that targeted a region around T670 of the KIT gene with CRISPR Design Tool (website: crispr.mit.edu, Zhang Feng Lab), cloning it into pSpCas9(BB)-2A-Puro vector; co-transfecting cells with the resultant vector and a single-stranded oligonucleotide having T670I site mutation that is near to T670, subjecting the resultant to antibiotics screening, followed by dilution, and monocellular culture in a 96-well plate; validating the site T670 of the cells by sequence detection via Sanger sequencing.” left out

Work on `COc1cc2nccc(Oc3ccc(NC(=O)Cc4ccc(Cl)c(C(F)(F)F)c4)cc3)c2cc1OC` [Example 2, N-(4-((6,7-dimethoxyquinolin-4-yl)oxy)phenyl)-2-(4-chloro-3-(trifluoromethyl)phenyl)-acetamide] yielded a GI50 (TEL-KIT/T670I-BaF3) of 4 nM, a GI50 (TEL-KIT/V559D-BaF3) of 6 nM and a GI50 (TEL-KIT/V559G-BaF3) of under 0.3 nM. It also gave a GI50 (TEL-KIT/V560D-BaF3) of 4 nM, a GI50 (TEL-KIT/L576P-BaF3) of 1 nM and a GI50 (TEL-KIT/V654A-BaF3) of 320 nM. For the same compound, the GI50 (TEL-KIT/T670E-BaF3) was 71 nM.
